The results in this text go back to ChEMBL document CHEMBL4342458, “Reisolation and Configurational Reinvestigation of Cottoquinazolines E-G from an Arthropod-Derived Strain of the Fungus Neosartorya fischeri” (2020).

SMILES strings stand for the structures.

Common to all, as to type: functional
One assay has as its system Escherichia coli. As to the kind of experiment: Antibacterial activity against ESBL-producing Escherichia coli ATCC 35218 assessed as reduction in microbial growth after 16 hrs by broth microdilution method. The note with it: ATCC 35218, 16 h.
A further assay has as its system Acinetobacter baumannii. Put plainly: Antibacterial activity against Acinetobacter baumannii ATCC 19606 assessed as reduction in microbial growth after 16 hrs by broth microdilution method. The settings on record: ATCC 19606, 16 h. Background: Dilution methods test growth across graded concentrations, often in twofold steps.
Another assay deals with Pseudomonas aeruginosa. As to the kind of experiment: Antibacterial activity against Pseudomonas aeruginosa ATCC 27853 assessed as reduction in microbial growth after 16 hrs by broth microdilution method. The note with it: ATCC 27853, 16 h.
The next assay relates to Klebsiella pneumoniae. Put plainly: Antibacterial activity against Klebsiella pneumoniae ATCC BAA2146 assessed as reduction in microbial growth after 16 hrs by broth microdilution method. The note with it: ATCC BAA2146, 16 h.
The next assay has as its system Enterococcus faecalis. As to the kind of experiment: Antibacterial activity against Enterococcus faecalis ATCC 29212 assessed as reduction in microbial growth after 16 hrs by broth microdilution method. The settings on record: ATCC 29212, 16 h.
Another assay concerns Staphylococcus aureus. Put plainly: Antibacterial activity against methicillin-resistant Staphylococcus aureus ATCC 43300 assessed as reduction in microbial growth after 16 hrs by broth microdilution method. The note with it: ATCC 43300, 16 h.

As to `NCC[C@H](O)C(=O)N[C@@H]1C[C@H](N)[C@@H](O[C@H]2O[C@H](CN)[C@@H](O)[C@H](O)[C@H]2O)[C@H](O)[C@H]1O[C@H]1O[C@H](CO)[C@@H](O)[C@H](N)[C@H]1O` [AMIKACIN], the MIC (commonly the least concentration at which growth counts as inhibited) was found to be 4 µg/mL with Escherichia coli, 2 µg/mL in the assay on Acinetobacter baumannii, 2 µg/mL in the assay with Pseudomonas aeruginosa and 8 µg/mL in the assay on Klebsiella pneumoniae.

With `CN[C@H](CC(C)C)C(=O)N[C@H]1C(=O)N[C@@H](CC(N)=O)C(=O)N[C@H]2C(=O)N[C@H]3C(=O)N[C@H](C(=O)N[C@H](C(=O)O)c4cc(O)cc(O)c4-c4cc3ccc4O)[C@H](O)c3ccc(c(Cl)c3)Oc3cc2cc(c3O[C@@H]2O[C@H](CO)[C@@H](O)[C@H](O)[C@H]2O[C@H]2C[C@](C)(N)[C@H](O)[C@H](C)O2)Oc2ccc(cc2Cl)[C@H]1O` [VANCOMYCIN], the MIC in the assay with Enterococcus faecalis is 0.5 µg/mL.

As for `C[C@@H]1N[C@H]2N(C1=O)c1ccccc1[C@@]21C[C@H]2C(=O)N(C)[C@@H](O1)c1nc3ccccc3c(=O)n12`, the MIC in the assay with Escherichia coli is 8 µg/mL; in the assay with Acinetobacter baumannii, 32 µg/mL; in the assay on Pseudomonas aeruginosa it was 32 µg/mL; in the assay on Klebsiella pneumoniae it was ≥ 100 µg/mL; with Staphylococcus aureus it was ≥ 100 µg/mL; in the assay on Enterococcus faecalis, 16 µg/mL.

Regarding `C[C@H]1C(=O)N2c3ccccc3[C@@]3(O)C[C@H]4C(=O)N[C@H](c5nc6ccccc6c(=O)n54)N1[C@@H]23`, the MIC in the assay on Escherichia coli, in the assay with Acinetobacter baumannii, in the assay on Pseudomonas aeruginosa, in the assay on Klebsiella pneumoniae, in the assay on Staphylococcus aureus and in the assay with Enterococcus faecalis was ≥ 100 µg/mL in each case.

For `C[C@@H]1N[C@H]2N(C1=O)c1ccccc1[C@@]21C[C@H]2C(=O)N[C@@H](O1)c1nc3ccccc3c(=O)n12`, the MIC in the assay with Escherichia coli, with Acinetobacter baumannii, in the assay on Pseudomonas aeruginosa, in the assay on Klebsiella pneumoniae, in the assay with Staphylococcus aureus and in the assay with Enterococcus faecalis was ≥ 100 µg/mL each time.

For `CO/N=C(\C(=O)N[C@@H]1C(=O)N2C(C(=O)O)=C(CSc3nc(=O)c(O)nn3C)CS[C@H]12)c1csc(N)n1` [CEFTRIAXONE], the MIC stood at 8 µg/mL with Escherichia coli, 8 µg/mL with Acinetobacter baumannii, 2 µg/mL with Pseudomonas aeruginosa and 8 µg/mL with Klebsiella pneumoniae.
